From patent US10011610B2, “Selective BACE1 inhibitors” (Eli Lilly and Company, priority 2015, dated 2018)
Read-outs that look alike come from different tables or passages of the source.

How the values were obtained:
human BACE1(1-460):Fc = target: T1, human BACE1(1-460):Fc (Homo sapiens, UniProt P56817); assay: BACE1 FRET Assay; assay type: biochemical; details: purified recombinant huBACE1:Fc, mean±standard deviation of the mean, n=4
T1 construct: made in house; host or cells: HEK293 (transient transfection, purified from conditioned media by Protein A)
Procedure: (§1) To assess selectivity of BACE1 over BACE2, the test compound is evaluated in FRET and immunoassay detection base enzymatic assays using specific substrates for BACE1 and BACE2 as described below. For in vitro enzymatic and cellular assays, the test compound is prepared in DMSO to make up a 10 mM stock solution. The stock solution is serially diluted in DMSO to obtain a ten-point dilution curve with final compound concentrations ranging from 10 μM to 0.05 nM in a 96-well round-bottom plate before conducting the in vitro enzymatic and whole cell assays.
(§2) Human BACE1 (accession number: AF190725) and human BACE2 (accession number: AF 204944) are cloned from total brain cDNA by RT-PCR. The nucleotide sequences corresponding to amino acid sequences #1 to 460 are inserted into the cDNA encoding human IgG1 (Fc) polypeptide (Vassar et al., Science, 286, 735-742 (1999)). […]
(§3) Conditioned media of HEK293 cells transiently transfected with huBACE1:Fc or huBACE2:Fc cDNA are collected. […] The purity of final product is assessed by electrophoresis in 4-20% Tris-Glycine SDS-PAGE. […]
Serial dilutions of the test compound are prepared as described above. […] The RFU of the mixture at time 0 is recorded at excitation wavelength 355 nm and emission wavelength 460 nm, after brief mixing on a plate shaker. […] The RFU at the end of incubation is recorded with the same excitation and emission settings used at time 0. […]

human BACE2 (1-460):Fc = target: T2, human BACE2 (1-460):Fc (Homo sapiens, UniProt Q9Y5Z0); assay: BACE2 MBP-C125Swe Assay; assay type: biochemical
T2 construct: made in house; host or cells: HEK293 (transient transfection, purified from conditioned media by Protein A)
T2 sequence (Q9Y5Z0 21-460): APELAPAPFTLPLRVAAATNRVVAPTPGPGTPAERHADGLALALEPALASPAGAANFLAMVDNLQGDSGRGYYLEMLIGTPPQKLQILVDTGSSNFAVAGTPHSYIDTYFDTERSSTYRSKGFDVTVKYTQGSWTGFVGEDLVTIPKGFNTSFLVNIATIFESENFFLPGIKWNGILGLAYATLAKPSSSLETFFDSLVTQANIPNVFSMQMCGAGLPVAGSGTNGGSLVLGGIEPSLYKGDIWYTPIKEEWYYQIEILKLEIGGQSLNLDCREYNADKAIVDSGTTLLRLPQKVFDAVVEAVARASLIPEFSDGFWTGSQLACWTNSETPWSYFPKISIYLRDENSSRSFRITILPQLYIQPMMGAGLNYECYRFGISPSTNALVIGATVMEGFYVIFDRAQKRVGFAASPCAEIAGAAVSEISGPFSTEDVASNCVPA
Procedure: as §1
as §2, with “(1999)). This fusion protein of BACE1(1-460) or BACE2(1-460) and human Fc, named huBACE1:Fc and huBACE2:Fc respectively, are constructed in the pJB02 vector.” for “(1999)).”
as §3
10 point serial dilutions of test compounds are prepared in the appropriate range. […] The amount of product is measured by ELISA using MBP-C26swe standard. […]

[1] = system: BACE1 activity in SH-SY5YAPP695Wt cells; assay: SH-SY5YAPP695Wt Whole Cell Assay (Abeta 1-40 and 1-42 ELISA); assay type: cell-based; details: Homo sapiens, 24 hours incubation, mean±standard deviation of the mean, n=4
Procedure: as §1
The routine whole cell assay for the measurement of inhibition of BACE1 activity utilizes the human neuroblastoma cell line SH-SY5Y (ATCC Accession No. CRL2266) stably expressing a human APP695Wt cDNA. Cells are routinely used up to passage number 6 and then discarded.
SH-SY5YAPP695Wt cells are plated in 96 well tissue culture plates at 5.0×10^4 cells/well in 200 μL culture media (50% MEM/EBSS and Ham's F12, lx each sodium pyruvate, non-essential amino acids and NaHCO3 containing 10% FBS). […]
At the end of the incubation, conditioned media are analyzed for evidence of beta-secretase activity by analysis of Abeta peptides 1-40 and 1-42 by specific sandwich ELISAs. […]

[2] = system: Abeta 1-x peptide levels in brain; assay: In Vivo Inhibition of Beta-Secretase (brain Abeta 1-x in PDAPP mice); details: p<0.01; for reduction of Abeta 1-x peptide levels in brain hippocampus: young female PDAPP mice; for reduction of Abeta 1-x levels in brain cortical tissue: PDAPP mice, compared to vehicle-treated mice three hours after dosing
Source text: Several animal models, including mouse, guinea pig, dog, and monkey, may be used to screen for inhibition of beta-secretase activity in vivo following compound treatment. Animals used in this invention can be wild type, transgenic, or gene knockout animals. For example, the PDAPP mouse model, prepared as described in Games et al., Nature 373, 523-527 (1995), and other non-transgenic or gene knockout animals are useful to analyze in vivo inhibition of Abeta and sAPPbeta production in the presence of inhibitory compounds. Generally, 2 month old PDAPP mice, gene knockout mice or non-transgenic animals are administered compound formulated in vehicles, such as corn oil, beta-cyclodextran, phosphate buffers, PHARMASOLVE®, or other suitable vehicles via oral, subcutaneous, intra-venous, feeding, or other route of administration. 1 to 24 hours following the administration of compound, animals are sacrificed, and brains are removed for analysis of Abeta 1-x. “Abeta 1-x” as used herein refers to the sum of Abeta species that begin with residue 1 and end with a C-terminus greater than residue 28. This detects the majority of Abeta species and is often called “total Abeta”. Total Abeta peptides (Abeta 1-x) levels are measured by a sandwich ELISA, using monoclonal 266 as a capture antibody and biotinylated 3D6 as reporting antibody. (See May, et al., Journal of Neuroscience, 31, 16507-16516 (2011)).
For acute studies, compound or appropriate vehicle is administered and animals are sacrificed at about 3 hours after dosing. Brain tissue, is obtained from selected animals and analyzed for the presence of Abeta 1-x. After chronic dosing brain tissues of older APP transgenic animals may also be analyzed for the amount of beta-amyloid plaques following compound treatment.
For example, a 0.1, 0.3, and 1 mg/kg oral dose of Example 1, to young female PDAPP mice reduced Abeta 1-x peptide levels in brain hippocampus by 32%, 40%, and 55% (all values p<0.01), respectively.

T1 sequence (P56817 22-460): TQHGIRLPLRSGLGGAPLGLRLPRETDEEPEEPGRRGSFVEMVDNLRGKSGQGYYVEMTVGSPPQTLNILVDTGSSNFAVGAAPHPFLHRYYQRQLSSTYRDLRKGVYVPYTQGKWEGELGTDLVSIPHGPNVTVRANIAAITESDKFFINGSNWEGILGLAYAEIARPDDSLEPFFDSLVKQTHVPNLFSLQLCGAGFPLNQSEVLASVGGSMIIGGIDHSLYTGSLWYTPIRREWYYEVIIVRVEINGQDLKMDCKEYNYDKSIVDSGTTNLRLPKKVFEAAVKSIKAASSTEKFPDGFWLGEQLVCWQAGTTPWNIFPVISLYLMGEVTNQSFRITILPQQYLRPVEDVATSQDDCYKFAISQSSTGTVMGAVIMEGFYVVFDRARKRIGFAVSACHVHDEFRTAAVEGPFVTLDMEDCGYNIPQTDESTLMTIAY

- IC50 (human BACE1(1-460):Fc): 0.509 nM
- IC50 (human BACE2 (1-460):Fc; MBP-C125Swe substrate, ELISA detection, mean±standard deviation of the mean, n=6): 17.6 nM
- ratio of BACE1 (FRET IC50 enzyme assay) to BACE2 (MBP-C125Swe cell assay) (human BACE2 (1-460):Fc; selectivity for BACE1 over BACE2): approximately 35 fold
- IC50 ([1]; read-out: IC50 for SH-SY5YAPP695Wt A-beta (1-40) ELISA): 0.157 nM
- IC50 ([1]; read-out: IC50 for SH-SY5YAPP695Wt A-beta (1-42) ELISA): 0.177 nM
Structure (SMILES): CC(F)(F)[C@H]1OC[C@]2(c3cc(NC(=O)c4ccc(C#N)cn4)ccc3F)N=C(N)SC[C@H]12 [Example 1, N-[3-[(4aS,5S,7aS)-2-Amino-5-(1,1-difluoroethyl)-4,4a,5,7-tetrahydrofuro[3,4-d][1,3]thiazin-7a-yl]-4-fluoro-phenyl]-5-cyano-pyridine-2-carboxamide]
- reduction of Abeta 1-x peptide levels in brain hippocampus ([2]; 0.1 mg/kg oral dose): 32%
- reduction of Abeta 1-x levels in brain cortical tissue ([2]; 0.1 mg/kg): 38%
- reduction of Abeta 1-x peptide levels in brain hippocampus ([2]; 0.3 mg/kg oral dose): 40%
- reduction of Abeta 1-x levels in brain cortical tissue ([2]; 0.3 mg/kg): 50%
- reduction of Abeta 1-x peptide levels in brain hippocampus ([2]; 1 mg/kg oral dose): 55%
- reduction of Abeta 1-x levels in brain cortical tissue ([2]; 1 mg/kg): 67%
